Organism: Rattus norvegicus
Experiment: DrugMatrix - Regimen: Daily Repeat
Type: toxicity, organism-based, Sprague-Dawley
Set-up: regimen Daily Repeat, gender Male, age 6-8 weeks
Conditions: in vivo, po, route oral GAVAGE, […]; for ABSOLUTE BASOPHIL / ABSOLUTE EOSINOPHIL / ABSOLUTE LYMPHOCYTE / ABSOLUTE SEGMENTED NEUTROPHIL / BASOPHIL / EOSINOPHIL / ERYTHROCYTE COUNT / HEMATOCRIT / HEMOGLOBIN / LYMPHOCYTE / MEAN CORPUSCULAR HEMOGLOBIN / MEAN CORPUSCULAR HEMOGLOBIN CONCENTRATION / MEAN CORPUSCULAR VOLUME / MONOCYTE / NUCLEATED RED BLOOD CELLS / PLATELET COUNT: tissue Blood; for ALANINE AMINOTRANSFERASE / ALBUMIN / ALKALINE PHOSPHATASE / ASPARTATE AMINOTRANSFERASE / BLOOD UREA NITROGEN / CARBON DIOXIDE / CHOLESTEROL / CREATINE PHOSPHOKINASE / CREATININE / GLUCOSE / LACTATE DEHYDROGENASE / POTASSIUM / SODIUM / TOTAL BILIRUBIN / TOTAL PROTEIN / URIC ACID: tissue Plasma
[1] = 0 mg/kg, 72 h, dose level Control, time 3 day
[2] = 0 mg/kg, 120 h, dose level Control, time 5 day
[3] = 20 mg/kg, 72 h, dose level Low, time 3 day
[4] = 20 mg/kg, 120 h, dose level Low, time 5 day
[5] = 2000 mg/kg, 72 h, dose level High, time 3 day
[6] = 2000 mg/kg, 120 h, dose level High, time 5 day

COc1ccccc1OCCNCC(O)COc1cccc2[nH]c3ccccc3c12 (configuration not stated) [CARVEDILOL]
ABSOLUTE BASOPHIL [1]: 0 CELLS/uL
ABSOLUTE EOSINOPHIL [1]: 0 CELLS/uL
ABSOLUTE LYMPHOCYTE [1]: 9244.83 CELLS/uL
ABSOLUTE SEGMENTED NEUTROPHIL [1]: 869.83 CELLS/uL
BASOPHIL [1]: 0%
EOSINOPHIL [1]: 0%
ERYTHROCYTE COUNT [1]: 5.43 x10E6/uL
HEMATOCRIT [1]: 34.03%
HEMOGLOBIN [1]: 13.27 G/DL
LYMPHOCYTE [1]: 90.33%
MEAN CORPUSCULAR HEMOGLOBIN [1]: 24.48 pg
MEAN CORPUSCULAR HEMOGLOBIN CONCENTRATION [1]: 39.03 G/DL
MEAN CORPUSCULAR VOLUME [1]: 62.75 fL
MONOCYTE [1]: 1%
NUCLEATED RED BLOOD CELLS [1]: 0.17 /100WBC
PLATELET COUNT [1]: 989 x10E3/uL
ALANINE AMINOTRANSFERASE [1]: 77 u/L
ALBUMIN [1]: 3.97 G/DL
ALKALINE PHOSPHATASE [1]: 464.83 u/L
ASPARTATE AMINOTRANSFERASE [1]: 89.83 u/L
BLOOD UREA NITROGEN [1]: 12.17 mg/dL
CARBON DIOXIDE [1]: 34.17 mmol/L
CHOLESTEROL [1]: 75.17 mg/dL
CREATINE PHOSPHOKINASE [1]: 367.67 u/L
CREATININE [1]: 0.16 mg/dL
GLUCOSE [1]: 142.67 mg/dL
LACTATE DEHYDROGENASE [1]: 139.33 u/L
POTASSIUM [1]: 6.38 MEQ/L
SODIUM [1]: 143.2 MEQ/L
TOTAL BILIRUBIN [1]: 0.2 mg/dL
TOTAL PROTEIN [1]: 5.77 G/DL
URIC ACID [1]: 0.7 mg/dL
ABSOLUTE BASOPHIL [2]: 0 CELLS/uL
ABSOLUTE EOSINOPHIL [2]: 0 CELLS/uL
ABSOLUTE LYMPHOCYTE [2]: 8295.33 CELLS/uL
ABSOLUTE SEGMENTED NEUTROPHIL [2]: 970 CELLS/uL
BASOPHIL [2]: 0%
EOSINOPHIL [2]: 0%
ERYTHROCYTE COUNT [2]: 5.74 x10E6/uL
HEMATOCRIT [2]: 36.22%
HEMOGLOBIN [2]: 13.85 G/DL
LYMPHOCYTE [2]: 88.67%
MEAN CORPUSCULAR HEMOGLOBIN [2]: 24.13 pg
MEAN CORPUSCULAR HEMOGLOBIN CONCENTRATION [2]: 38.25 G/DL
MEAN CORPUSCULAR VOLUME [2]: 63.08 fL
MONOCYTE [2]: 1%
NUCLEATED RED BLOOD CELLS [2]: 0.17 /100WBC
PLATELET COUNT [2]: 883.83 x10E3/uL
ALANINE AMINOTRANSFERASE [2]: 64.5 u/L
ALBUMIN [2]: 4.12 G/DL
ALKALINE PHOSPHATASE [2]: 425.67 u/L
ASPARTATE AMINOTRANSFERASE [2]: 88.5 u/L
BLOOD UREA NITROGEN [2]: 14.17 mg/dL
CARBON DIOXIDE [2]: 30.5 mmol/L
CHOLESTEROL [2]: 55.33 mg/dL
CREATINE PHOSPHOKINASE [2]: 287.17 u/L
CREATININE [2]: 0.2 mg/dL
GLUCOSE [2]: 162.83 mg/dL
LACTATE DEHYDROGENASE [2]: 111.33 u/L
POTASSIUM [2]: 5.13 MEQ/L
SODIUM [2]: 143.93 MEQ/L
TOTAL BILIRUBIN [2]: 0.17 mg/dL
TOTAL PROTEIN [2]: 5.9 G/DL
URIC ACID [2]: 0.77 mg/dL
ABSOLUTE BASOPHIL [3]: 0 CELLS/uL
ABSOLUTE EOSINOPHIL [3]: 67.33 CELLS/uL
ABSOLUTE LYMPHOCYTE [3]: 15458 CELLS/uL
ABSOLUTE SEGMENTED NEUTROPHIL [3]: 1844 CELLS/uL
BASOPHIL [3]: 0%
EOSINOPHIL [3]: 0.33%
ERYTHROCYTE COUNT [3]: 5.47 x10E6/uL
HEMATOCRIT [3]: 34.53%
HEMOGLOBIN [3]: 13.3 G/DL
LYMPHOCYTE [3]: 89.33%
MEAN CORPUSCULAR HEMOGLOBIN [3]: 24.47 pg
MEAN CORPUSCULAR HEMOGLOBIN CONCENTRATION [3]: 38.5 G/DL
MEAN CORPUSCULAR VOLUME [3]: 63.47 fL
MONOCYTE [3]: 0.33%
NUCLEATED RED BLOOD CELLS [3]: 0 /100WBC
PLATELET COUNT [3]: 907.33 x10E3/uL
ALANINE AMINOTRANSFERASE [3]: 76.33 u/L
ALBUMIN [3]: 4.1 G/DL
ALKALINE PHOSPHATASE [3]: 486 u/L
ASPARTATE AMINOTRANSFERASE [3]: 96.67 u/L
BLOOD UREA NITROGEN [3]: 11 mg/dL
CARBON DIOXIDE [3]: 32.67 mmol/L
CHOLESTEROL [3]: 75.67 mg/dL
CREATINE PHOSPHOKINASE [3]: 501.33 u/L
CREATININE [3]: 0.24 mg/dL
GLUCOSE [3]: 131 mg/dL
LACTATE DEHYDROGENASE [3]: 152.67 u/L
POTASSIUM [3]: 5.98 MEQ/L
SODIUM [3]: 145.6 MEQ/L
TOTAL BILIRUBIN [3]: 0.17 mg/dL
TOTAL PROTEIN [3]: 5.8 G/DL
URIC ACID [3]: 0.6 mg/dL
ABSOLUTE BASOPHIL [4]: 0 CELLS/uL
ABSOLUTE EOSINOPHIL [4]: 48 CELLS/uL
ABSOLUTE LYMPHOCYTE [4]: 6685 CELLS/uL
ABSOLUTE SEGMENTED NEUTROPHIL [4]: 615 CELLS/uL
BASOPHIL [4]: 0%
EOSINOPHIL [4]: 0.67%
ERYTHROCYTE COUNT [4]: 5.51 x10E6/uL
HEMATOCRIT [4]: 34.9%
HEMOGLOBIN [4]: 13.3 G/DL
LYMPHOCYTE [4]: 90.33%
MEAN CORPUSCULAR HEMOGLOBIN [4]: 24.17 pg
MEAN CORPUSCULAR HEMOGLOBIN CONCENTRATION [4]: 38.13 G/DL
MEAN CORPUSCULAR VOLUME [4]: 63.4 fL
MONOCYTE [4]: 0.67%
NUCLEATED RED BLOOD CELLS [4]: 0.33 /100WBC
PLATELET COUNT [4]: 1008 x10E3/uL
ALANINE AMINOTRANSFERASE [4]: 58.33 u/L
ALBUMIN [4]: 3.93 G/DL
ALKALINE PHOSPHATASE [4]: 439.33 u/L
ASPARTATE AMINOTRANSFERASE [4]: 81.67 u/L
BLOOD UREA NITROGEN [4]: 15 mg/dL
CARBON DIOXIDE [4]: 30.67 mmol/L
CHOLESTEROL [4]: 57 mg/dL
CREATINE PHOSPHOKINASE [4]: 167.67 u/L
CREATININE [4]: 0.13 mg/dL
GLUCOSE [4]: 153.67 mg/dL
LACTATE DEHYDROGENASE [4]: 137 u/L
POTASSIUM [4]: 5.49 MEQ/L
SODIUM [4]: 144.75 MEQ/L
TOTAL BILIRUBIN [4]: 0.23 mg/dL
TOTAL PROTEIN [4]: 5.63 G/DL
URIC ACID [4]: 0.5 mg/dL
ABSOLUTE BASOPHIL [5]: 0 CELLS/uL
ABSOLUTE EOSINOPHIL [5]: 24.67 CELLS/uL
ABSOLUTE LYMPHOCYTE [5]: 8554.33 CELLS/uL
ABSOLUTE SEGMENTED NEUTROPHIL [5]: 841.33 CELLS/uL
BASOPHIL [5]: 0%
EOSINOPHIL [5]: 0.33%
ERYTHROCYTE COUNT [5]: 5.87 x10E6/uL
HEMATOCRIT [5]: 36.37%
HEMOGLOBIN [5]: 13.9 G/DL
LYMPHOCYTE [5]: 88%
MEAN CORPUSCULAR HEMOGLOBIN [5]: 23.67 pg
MEAN CORPUSCULAR HEMOGLOBIN CONCENTRATION [5]: 38.23 G/DL
MEAN CORPUSCULAR VOLUME [5]: 61.93 fL
MONOCYTE [5]: 1.67%
NUCLEATED RED BLOOD CELLS [5]: 0 /100WBC
PLATELET COUNT [5]: 1204 x10E3/uL
ALANINE AMINOTRANSFERASE [5]: 147 u/L
ALBUMIN [5]: 3.83 G/DL
ALKALINE PHOSPHATASE [5]: 433.33 u/L
ASPARTATE AMINOTRANSFERASE [5]: 253.67 u/L
BLOOD UREA NITROGEN [5]: 12.33 mg/dL
CARBON DIOXIDE [5]: 35.67 mmol/L
CHOLESTEROL [5]: 135.33 mg/dL
CREATINE PHOSPHOKINASE [5]: 315.33 u/L
CREATININE [5]: 0.15 mg/dL
GLUCOSE [5]: 110.33 mg/dL
LACTATE DEHYDROGENASE [5]: 180 u/L
POTASSIUM [5]: 4.83 MEQ/L
SODIUM [5]: 143.43 MEQ/L
TOTAL BILIRUBIN [5]: 0.27 mg/dL
TOTAL PROTEIN [5]: 5.7 G/DL
URIC ACID [5]: 0.7 mg/dL
ABSOLUTE BASOPHIL [6]: 0 CELLS/uL
ABSOLUTE EOSINOPHIL [6]: 92.67 CELLS/uL
ABSOLUTE LYMPHOCYTE [6]: 7992.67 CELLS/uL
ABSOLUTE SEGMENTED NEUTROPHIL [6]: 4483.67 CELLS/uL
BASOPHIL [6]: 0%
EOSINOPHIL [6]: 0.67%
ERYTHROCYTE COUNT [6]: 7.13 x10E6/uL
HEMATOCRIT [6]: 41.5%
HEMOGLOBIN [6]: 15.4 G/DL
LYMPHOCYTE [6]: 64.67%
MEAN CORPUSCULAR HEMOGLOBIN [6]: 21.77 pg
MEAN CORPUSCULAR HEMOGLOBIN CONCENTRATION [6]: 37.27 G/DL
MEAN CORPUSCULAR VOLUME [6]: 58.43 fL
MONOCYTE [6]: 1.67%
NUCLEATED RED BLOOD CELLS [6]: 0 /100WBC
PLATELET COUNT [6]: 1163.67 x10E3/uL
ALANINE AMINOTRANSFERASE [6]: 380 u/L
ALBUMIN [6]: 3.27 G/DL
ALKALINE PHOSPHATASE [6]: 444.33 u/L
ASPARTATE AMINOTRANSFERASE [6]: 620.33 u/L
BLOOD UREA NITROGEN [6]: 39.33 mg/dL
CARBON DIOXIDE [6]: 27 mmol/L
CHOLESTEROL [6]: 132.33 mg/dL
CREATINE PHOSPHOKINASE [6]: 3005.33 u/L
CREATININE [6]: 0.42 mg/dL
GLUCOSE [6]: 124 mg/dL
LACTATE DEHYDROGENASE [6]: 673.67 u/L
POTASSIUM [6]: 6.23 MEQ/L
SODIUM [6]: 138.53 MEQ/L
TOTAL BILIRUBIN [6]: 0.4 mg/dL
TOTAL PROTEIN [6]: 5.33 G/DL
URIC ACID [6]: 1.5 mg/dL
